One compound from US11377429B2, “Benzothia(di)azepine compounds and their use as bile acid modulators” (Albireo AB, priority 2020, dated 2022) can be followed below.

For the experiment, the target named is T1, Human IBAT (Homo sapiens, UniProt Q12908).
T1 construct: expressed in transfected cells; cultured under Puromycin selection
T1 sequence (Q12908 1-348): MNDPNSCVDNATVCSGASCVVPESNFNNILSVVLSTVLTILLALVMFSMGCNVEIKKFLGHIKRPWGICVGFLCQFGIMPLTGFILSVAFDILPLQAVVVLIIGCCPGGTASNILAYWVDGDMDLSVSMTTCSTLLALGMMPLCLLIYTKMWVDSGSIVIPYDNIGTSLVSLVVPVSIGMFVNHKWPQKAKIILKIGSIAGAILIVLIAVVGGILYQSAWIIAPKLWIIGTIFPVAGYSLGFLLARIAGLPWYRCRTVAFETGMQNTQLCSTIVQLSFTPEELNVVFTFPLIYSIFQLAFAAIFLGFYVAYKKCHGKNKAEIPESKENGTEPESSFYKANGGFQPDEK
Briefly: IBAT (h/m) assay, human IBAT-overexpressing cells, 3H-taurocholic acid uptake. As to conditions: read-out: hIBAT IC50. The format is cell-based. The method, then: IBAT (h/m) Assay Protocol
10,000 cells (Human or Mouse IBAT-overexpressing cells) were seeded in 96-wells plate (Corning CLS3809) in 200 μL MEM-alpha medium (Gibco 12571-063) supplemented with 10% FBS (Gibco 10438026) containing Puromycin (Gibco A1113803) (10 μg/mL) and incubated at 37° C. in 5% CO2 for 48 hours. After incubation, media was decanted from the wells and cells were washed two times with 300 μL of basal MEM-alpha medium (FBS-free). After decanting basal MEM-alpha medium each time, plates were tapped against paper towel to ensure maximum removal of residual media. Test inhibitor dilutions (highest test concentration being 10 μM, 3-fold serial dilution, 10 points) prepared in DMSO (Sigma D2650) were added in incubation mix (maintaining 0.2% final DMSO concentration) containing 0.25 μM 3H-taurocholic acid (ARC ART-1368) and 5 μM of cold taurocholic acid (Sigma T4009). 50 μL of incubation mix containing test inhibitors was then added to the wells (in duplicate) and the plates were incubated for 20 minutes in a CO2 incubator at 37° C. After incubation, the reaction was stopped by keeping the plates on ice water mix for 2-3 minutes and then the incubation mix was aspirated completely from the wells. The wells were washed two times with 250 μL of chilled unlabeled 1 mM taurocholic acid dissolved in HEPES (Gibco 15630080)-buffered (10 mM) HBSS (Gibco 14175079) (pH 7.4). The plates were tapped against a paper towel after every wash to ensure maximum removal of blocking buffer. 100 μL of MicroScint-20 (PerkinElmer 6013621) was added to the wells and kept overnight at room temperature before reading the plates in TopCount NXT™ Microplate Scintillation and Luminescence Counter from PerkinElmer under 3H Test protocol (set at 120 seconds reading time per well).
Preparation of Test Compound Dilutions
All test compounds were provided in powder form at room temperature. 10 mM DMSO stocks of the test compounds were prepared, aliquoted and stored at −20° C. From the 10 mM DMSO stock of the compounds, a 3-fold serial dilution in DMSO was prepared to get a total of 10 dilutions of the test compounds. 0.5 μL of this dilution in DMSO was added to 250 μL of FBS-free basal media containing 3H-taurocholic acid and cold taurocholic acid to prepare the incubation mixture.

For the compound `CCCCC1(C)CN(c2ccc(F)cc2)c2cc(SC)c(OCC(O)C(=O)O)cc2S(=O)(=O)C1` (single isomer, unassigned) [1, diastereomer 1], the IC50 came to 1 nM.

The IC50 is the concentration that gives 50% inhibition.
